According to patent US12559506B2, “Indazole based compounds and associated methods of use” (Arvinas Operations, Inc., priority 2021, dated 2026):

Molecular target: T1, LRRK2 (endogenous, HiBit tagged) (Homo sapiens, UniProt Q5S007)
T1 construct: endogenous in cells; host or cells: HEK293 cells with HiBit knock-in at the endogenous LRRK2 locus, stably expressing firefly luciferase
Assay: Endogenous LRRK2 degradation assay, endogenous gene C-terminally HiBit-tagged in HEK293 cells (Nano-Glo Dual Luciferase)
Type: cell-based
Conditions: endogenous HiBit-tagged LRRK2 in HEK293 cells, 24 hours treatment; for Dmax: read-out: **Endogenous WT Dmax (%); for DC50: read-out: *Endogenous WT DC50
Summary of the method: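 LRRK2-HiBit quantified via Nano-Glo Dual Luciferase in HEK293 knock-in cells co-expressing firefly luciferase, after 24 h exposure to compound (1 μM final top, 1:3, 11 points). Values normalised to DMSO median per plate and curve-fitted; Alamar Blue viability run alongside.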

T1 sequence (Q5S007 whole entry): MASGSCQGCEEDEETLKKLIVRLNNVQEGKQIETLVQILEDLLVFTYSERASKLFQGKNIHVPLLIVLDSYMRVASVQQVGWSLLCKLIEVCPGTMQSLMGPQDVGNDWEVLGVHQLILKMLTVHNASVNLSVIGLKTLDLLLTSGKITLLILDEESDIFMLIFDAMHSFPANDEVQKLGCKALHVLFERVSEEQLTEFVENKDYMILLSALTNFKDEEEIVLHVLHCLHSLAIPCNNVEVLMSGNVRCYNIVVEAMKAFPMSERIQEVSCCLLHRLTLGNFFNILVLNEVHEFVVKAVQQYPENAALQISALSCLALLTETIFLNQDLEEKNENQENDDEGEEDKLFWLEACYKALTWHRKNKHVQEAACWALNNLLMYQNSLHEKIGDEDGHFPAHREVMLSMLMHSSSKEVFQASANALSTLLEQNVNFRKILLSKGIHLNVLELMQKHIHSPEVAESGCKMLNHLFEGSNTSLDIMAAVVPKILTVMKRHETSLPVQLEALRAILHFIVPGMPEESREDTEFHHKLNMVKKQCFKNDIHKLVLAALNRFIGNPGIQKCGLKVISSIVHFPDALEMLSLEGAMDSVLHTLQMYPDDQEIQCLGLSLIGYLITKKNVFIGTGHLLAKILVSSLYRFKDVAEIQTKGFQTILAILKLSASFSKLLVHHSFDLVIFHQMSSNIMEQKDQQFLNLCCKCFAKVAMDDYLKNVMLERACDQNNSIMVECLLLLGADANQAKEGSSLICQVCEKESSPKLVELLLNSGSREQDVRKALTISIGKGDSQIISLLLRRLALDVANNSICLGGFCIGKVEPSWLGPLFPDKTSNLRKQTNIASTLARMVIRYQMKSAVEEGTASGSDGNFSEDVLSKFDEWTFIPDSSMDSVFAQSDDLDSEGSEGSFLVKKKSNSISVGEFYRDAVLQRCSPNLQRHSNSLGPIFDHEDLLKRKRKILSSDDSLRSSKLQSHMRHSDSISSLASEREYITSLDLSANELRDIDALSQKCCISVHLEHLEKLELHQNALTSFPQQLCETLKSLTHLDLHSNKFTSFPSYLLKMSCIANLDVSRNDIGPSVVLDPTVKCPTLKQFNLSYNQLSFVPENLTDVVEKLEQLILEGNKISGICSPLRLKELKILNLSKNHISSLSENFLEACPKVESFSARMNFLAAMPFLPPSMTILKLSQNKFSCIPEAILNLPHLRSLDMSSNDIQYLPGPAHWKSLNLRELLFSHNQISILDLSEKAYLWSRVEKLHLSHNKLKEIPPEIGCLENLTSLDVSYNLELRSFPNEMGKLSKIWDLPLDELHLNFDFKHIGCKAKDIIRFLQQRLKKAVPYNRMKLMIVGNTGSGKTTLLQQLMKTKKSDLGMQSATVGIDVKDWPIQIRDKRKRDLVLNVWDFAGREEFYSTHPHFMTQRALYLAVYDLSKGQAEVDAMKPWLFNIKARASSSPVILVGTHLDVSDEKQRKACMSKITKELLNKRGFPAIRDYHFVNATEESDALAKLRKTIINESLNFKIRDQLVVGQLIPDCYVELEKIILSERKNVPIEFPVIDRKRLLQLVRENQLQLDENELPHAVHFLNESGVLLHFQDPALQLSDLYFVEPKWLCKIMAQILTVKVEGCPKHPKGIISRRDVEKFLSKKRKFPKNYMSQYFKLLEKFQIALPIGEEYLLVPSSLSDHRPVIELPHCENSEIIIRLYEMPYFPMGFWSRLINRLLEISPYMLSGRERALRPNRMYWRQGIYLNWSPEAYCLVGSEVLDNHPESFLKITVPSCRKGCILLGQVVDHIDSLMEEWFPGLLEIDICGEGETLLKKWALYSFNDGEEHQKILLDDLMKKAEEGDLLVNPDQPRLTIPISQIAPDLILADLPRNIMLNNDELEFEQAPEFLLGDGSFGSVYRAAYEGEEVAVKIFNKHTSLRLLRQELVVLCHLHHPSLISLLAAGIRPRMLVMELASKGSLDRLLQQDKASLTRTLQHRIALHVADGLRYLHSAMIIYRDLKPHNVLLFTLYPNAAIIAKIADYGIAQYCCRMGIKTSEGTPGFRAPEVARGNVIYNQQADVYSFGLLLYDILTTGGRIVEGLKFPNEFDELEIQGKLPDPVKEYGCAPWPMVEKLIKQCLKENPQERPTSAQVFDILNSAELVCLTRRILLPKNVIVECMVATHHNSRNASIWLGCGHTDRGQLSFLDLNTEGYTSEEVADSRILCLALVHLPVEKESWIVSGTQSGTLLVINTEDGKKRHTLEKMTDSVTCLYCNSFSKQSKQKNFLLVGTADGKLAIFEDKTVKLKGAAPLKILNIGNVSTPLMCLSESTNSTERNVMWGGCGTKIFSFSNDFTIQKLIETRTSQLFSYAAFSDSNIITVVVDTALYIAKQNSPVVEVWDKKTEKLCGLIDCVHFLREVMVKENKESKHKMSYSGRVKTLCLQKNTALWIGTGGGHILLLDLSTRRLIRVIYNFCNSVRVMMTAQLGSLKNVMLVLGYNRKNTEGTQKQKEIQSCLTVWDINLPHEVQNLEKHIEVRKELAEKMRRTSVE

Structure (SMILES) | Dmax | DC50
CC1(Oc2cc3c(-c4cc(N5CCN(C[C@H]6CC[C@H](CN7CCN(c8ccc9c(c8F)CN(C8CCC(=O)NC8=O)C9=O)CC7)CC6)CC5)ncn4)n[nH]c3cn2)CC1 (stereo partly shown) [Compound 267, 3-[4-fluoro-1-oxo-5-(4-{[(1r,4r)-4-[(4-{6-[5-(1-methylcyclopropoxy)-1H-pyrazolo[3,4-c]pyridin-3-yl]pyrimidin-4-yl}piperazin-1-yl)methyl]cyclohexyl]methyl}piperazin-1-yl)-2,3-dihydro-1H-isoindol-2-yl]piperidine-2,6-dione] | ≥ 70% | < 10 nM
COc1c(N2CCN(C[C@H]3CC[C@H](OC4CCN(c5cc(-c6n[nH]c7cnc(OC8(C)CC8)cc67)ncn5)CC4)CC3)CC2)ccc2c1CN(C1CCC(=O)NC1=O)C2=O (stereo partly shown) [Compound 268, 3-[4-methoxy-1-oxo-5-(4-{[(1r,4r)-4-[(1-{6-[5-(1-methylcyclopropoxy)-1H-pyrazolo[3,4-c]pyridin-3-yl]pyrimidin-4-yl}piperidin-4-yl)oxy]cyclohexyl]methyl}piperazin-1-yl)-2,3-dihydro-1H-isoindol-2-yl]piperidine-2,6-dione] | 50 to 70% | < 10 nM
CC1(Oc2ccc3[nH]nc(-c4cc(N5CCC(O[C@H]6CC[C@H](CN7CCN(c8c(F)cc9c(c8F)CN(C8CCC(=O)NC8=O)C9=O)CC7)CC6)CC5)ncn4)c3c2)CC1 (stereo partly shown) [Compound 269, 3-[4,6-difluoro-1-oxo-5-(4-{[(1r,4r)-4-[(1-{6-[5-(1-methylcyclopropoxy)-1H-indazol-3-yl]pyrimidin-4-yl}piperidin-4-yl)oxy]cyclohexyl]methyl}piperazin-1-yl)-2,3-dihydro-1H-isoindol-2-yl]piperidine-2,6-dione] | 50 to 70% | < 10 nM
CC1(Oc2cc3c(-c4cc(N5CCC(CN6CCN(CC7CCN(c8ccc9c(c8F)CN(C8CCC(=O)NC8=O)C9=O)CC7)C(C)(C)C6)CC5)ncn4)n[nH]c3cn2)CC1 (stereo not shown) [Compound 270, 3-{5-[4-({2,2-dimethyl-4-[(1-{6-[5-(1-methylcyclopropoxy)-1H-pyrazolo[3,4-c]pyridin-3-yl]pyrimidin-4-yl}piperidin-4-yl)methyl]piperazin-1-yl}methyl)piperidin-1-yl]-4-fluoro-1-oxo-2,3-dihydro-1H-isoindol-2-yl}piperidine-2,6-dione] | ≥ 70% | < 10 nM
COc1c(N2CCC(CN3CCN(CC4CCN(c5cc(-c6n[nH]c7cnc(OC8(C)CC8)cc67)ncn5)CC4)C[C@@H]3C)CC2)ccc2c1CN(C1CCC(=O)NC1=O)C2=O (stereo partly drawn) [Compound 271, 3-[4-methoxy-5-(4-{[(2S)-2-methyl-4-[(1-{6-[5-(1-methylcyclopropoxy)-1H-pyrazolo[3,4-c]pyridin-3-yl]pyrimidin-4-yl}piperidin-4-yl)methyl]piperazin-1-yl]methyl}piperidin-1-yl)-1-oxo-2,3-dihydro-1H-isoindol-2-yl]piperidine-2,6-dione] | 50 to 70% | < 10 nM
C[C@@H]1CN(CC2CCN(c3cc(-c4n[nH]c5cnc(OC6(C)CC6)cc45)ncn3)CC2)CCN1CC1CCN(c2ccc3c(c2F)CN(C2CCC(=O)NC2=O)C3=O)CC1 (stereo partly drawn) [Compound 272, 3-[4-fluoro-5-(4-{[(2R)-2-methyl-4-[(1-{6-[5-(1-methylcyclopropoxy)-1H-pyrazolo[3,4-c]pyridin-3-yl]pyrimidin-4-yl}piperidin-4-yl)methyl]piperazin-1-yl]methyl}piperidin-1-yl)-1-oxo-2,3-dihydro-1H-isoindol-2-yl]piperidine-2,6-dione] | 50 to 70% | < 10 nM
COc1c(N2CCC(O[C@H]3CC[C@H](CN4CCN(c5cc(-c6n[nH]c7cnc(OC8(C)CC8)cc67)ncn5)CC4)CC3)CC2)ccc2c1CN(C1CCC(=O)NC1=O)C2=O (stereo partly shown) [Compound 273, 3-[4-methoxy-1-oxo-5-(4-{[(1r,4r)-4-[(4-{6-[5-(1-methylcyclopropoxy)-1H-pyrazolo[3,4-c]pyridin-3-yl]pyrimidin-4-yl}piperazin-1-yl)methyl]cyclohexyl]oxy}piperidin-1-yl)-2,3-dihydro-1H-isoindol-2-yl]piperidine-2,6-dione] | < 50% | < 10 nM
CC1(Oc2cc3c(-c4cc(N5CCC(CN6CCN(CC7CCN(c8ccc9c(c8F)CN(C8CCC(=O)NC8=O)C9=O)CC7)CC6(C)C)CC5)ncn4)n[nH]c3cc2F)CC1 (stereo not shown) [Compound 274, 3-{4-fluoro-5-[4-({4-[(1-{6-[6-fluoro-5-(1-methylcyclopropoxy)-1H-indazol-3-yl]pyrimidin-4-yl}piperidin-4-yl)methyl]-3,3-dimethylpiperazin-1-yl}methyl)piperidin-1-yl]-1-oxo-2,3-dihydro-1H-isoindol-2-yl}piperidine-2,6-dione] | 50 to 70% | < 10 nM
CC1(Oc2cc3c(-c4cc(N5CCC(CN6CCN(CC7CCN(c8ccc9c(c8F)CN(C8CCC(=O)NC8=O)C9=O)CC7)C(C)(C)C6)CC5)ncn4)n[nH]c3cc2F)CC1 (stereo not shown) [Compound 275, 3-{4-fluoro-5-[4-({4-[(1-{6-[6-fluoro-5-(1-methylcyclopropoxy)-1H-indazol-3-yl]pyrimidin-4-yl}piperidin-4-yl)methyl]-2,2-dimethylpiperazin-1-yl}methyl)piperidin-1-yl]-1-oxo-2,3-dihydro-1H-isoindol-2-yl}piperidine-2,6-dione] | 50 to 70% | < 10 nM
C[C@H]1CN(CC2CCN(c3cc(-c4n[nH]c5cnc(OC6(C)CC6)cc45)ncn3)CC2)CCN1CC1CCN(c2ccc3c(c2F)CN(C2CCC(=O)NC2=O)C3=O)CC1 (stereo partly drawn) [Compound 276, 3-[4-fluoro-5-(4-{[(2S)-2-methyl-4-[(1-{6-[5-(1-methylcyclopropoxy)-1H-pyrazolo[3,4-c]pyridin-3-yl]pyrimidin-4-yl}piperidin-4-yl)methyl]piperazin-1-yl]methyl}piperidin-1-yl)-1-oxo-2,3-dihydro-1H-isoindol-2-yl]piperidine-2,6-dione] | 50 to 70% | < 10 nM
COc1c(N2CCC(CN3CCN(CC4CCN(c5cc(-c6n[nH]c7cnc(OC8(C)CC8)cc67)ncn5)CC4)CC3(C)C)CC2)ccc2c1CN(C1CCC(=O)NC1=O)C2=O (stereo not shown) [Compound 277, 3-{5-[4-({2,2-dimethyl-4-[(1-{6-[5-(1-methylcyclopropoxy)-1H-pyrazolo[3,4-c]pyridin-3-yl]pyrimidin-4-yl}piperidin-4-yl)methyl]piperazin-1-yl}methyl)piperidin-1-yl]-4-methoxy-1-oxo-2,3-dihydro-1H-isoindol-2-yl}piperidine-2,6-dione] | 50 to 70% | < 10 nM
COc1c(N2CCC(CN3CCN(CC4CCN(c5cc(-c6n[nH]c7cc(F)c(OC8(C)CC8)cc67)ncn5)CC4)C(C)(C)C3)CC2)ccc2c1CN(C1CCC(=O)NC1=O)C2=O (stereo not shown) [Compound 278, 3-{5-[4-({4-[(1-{6-[6-fluoro-5-(1-methylcyclopropoxy)-1H-indazol-3-yl]pyrimidin-4-yl}piperidin-4-yl)methyl]-3,3-dimethylpiperazin-1-yl}methyl)piperidin-1-yl]-4-methoxy-1-oxo-2,3-dihydro-1H-isoindol-2-yl}piperidine-2,6-dione] | 50 to 70% | < 10 nM
COc1c(N2CCC(CN3CCN(CC4CCN(c5cc(-c6n[nH]c7cc(F)c(OC8(C)CC8)cc67)ncn5)CC4)CC3(C)C)CC2)ccc2c1CN(C1CCC(=O)NC1=O)C2=O (stereo not shown) [Compound 279, 3-{5-[4-({4-[(1-{6-[6-fluoro-5-(1-methylcyclopropoxy)-1H-indazol-3-yl]pyrimidin-4-yl}piperidin-4-yl)methyl]-2,2-dimethylpiperazin-1-yl}methyl)piperidin-1-yl]-4-methoxy-1-oxo-2,3-dihydro-1H-isoindol-2-yl}piperidine-2,6-dione] | ≥ 70% | < 10 nM
COc1c(N2CCC(O[C@H]3CC[C@H](CN4CCN(c5cc(-c6n[nH]c7cc(F)c(OC8(C)CC8)cc67)ncn5)CC4)CC3)CC2)ccc2c1CN(C1CCC(=O)NC1=O)C2=O (stereo partly shown) [Compound 280, 3-[4-methoxy-1-oxo-5-(4-{[(1r,4r)-4-[(4-{6-[6-fluoro-5-(1-methylcyclopropoxy)-1H-indazol-3-yl]pyrimidin-4-yl}piperazin-1-yl)methyl]cyclohexyl]oxy}piperidin-1-yl)-2,3-dihydro-1H-isoindol-2-yl]piperidine-2,6-dione] | 50 to 70% | < 10 nM
COc1c(N2CCN(C[C@H]3CC[C@H](OC4CCN(c5cc(-c6n[nH]c7cc(F)c(OC8(C)CC8)cc67)ncn5)CC4)CC3)CC2)ccc2c1CN(C1CCC(=O)NC1=O)C2=O (stereo partly shown) [Compound 281, 3-[4-methoxy-1-oxo-5-(4-{[(1r,4r)-4-[(1-{6-[6-fluoro-5-(1-methylcyclopropoxy)-1H-indazol-3-yl]pyrimidin-4-yl}piperidin-4-yl)oxy]cyclohexyl]methyl}piperazin-1-yl)-2,3-dihydro-1H-isoindol-2-yl]piperidine-2,6-dione] | 50 to 70% | < 10 nM
COc1c(N2CCC(CN3CCN(CC4CCN(c5cc(-c6n[nH]c7cnc(OC8(C)CC8)cc67)ncn5)CC4)[C@@H](C)C3)CC2)ccc2c1CN(C1CCC(=O)NC1=O)C2=O (stereo partly drawn) [Compound 282, 3-[4-methoxy-5-(4-{[(3S)-3-methyl-4-[(1-{6-[5-(1-methylcyclopropoxy)-1H-pyrazolo[3,4-c]pyridin-3-yl]pyrimidin-4-yl}piperidin-4-yl)methyl]piperazin-1-yl]methyl}piperidin-1-yl)-1-oxo-2,3-dihydro-1H-isoindol-2-yl]piperidine-2,6-dione] | ≥ 70% | < 10 nM
COc1c(N2CCC(CN3CCN(CC4CCN(c5cc(-c6n[nH]c7cnc(OC8(C)CC8)cc67)ncn5)CC4)C[C@H]3C)CC2)ccc2c1CN(C1CCC(=O)NC1=O)C2=O (stereo partly drawn) [Compound 283, 3-[4-methoxy-5-(4-{[(2R)-2-methyl-4-[(1-{6-[5-(1-methylcyclopropoxy)-1H-pyrazolo[3,4-c]pyridin-3-yl]pyrimidin-4-yl}piperidin-4-yl)methyl]piperazin-1-yl]methyl}piperidin-1-yl)-1-oxo-2,3-dihydro-1H-isoindol-2-yl]piperidine-2,6-dione] | ≥ 70% | < 10 nM
